Results from PMC5349529, “Antagonizing effects of membrane-acting androgens on the eicosanoid receptor OXER1 in prostate cancer” (Scientific Reports, 2017).

Molecular target: oxoeicosanoid receptor 1 (OXER1) (Homo sapiens, UniProt Q8TDS5)
Assay: inhibition of forskolin-stimulated cAMP in CHO-K1 cells stably expressing human OXER1 (agonist); also displaces [3H]testosterone from DU-145 membranes
Type: cell-based

Sequence of oxoeicosanoid receptor 1 (OXER1) (Q8TDS5 whole entry): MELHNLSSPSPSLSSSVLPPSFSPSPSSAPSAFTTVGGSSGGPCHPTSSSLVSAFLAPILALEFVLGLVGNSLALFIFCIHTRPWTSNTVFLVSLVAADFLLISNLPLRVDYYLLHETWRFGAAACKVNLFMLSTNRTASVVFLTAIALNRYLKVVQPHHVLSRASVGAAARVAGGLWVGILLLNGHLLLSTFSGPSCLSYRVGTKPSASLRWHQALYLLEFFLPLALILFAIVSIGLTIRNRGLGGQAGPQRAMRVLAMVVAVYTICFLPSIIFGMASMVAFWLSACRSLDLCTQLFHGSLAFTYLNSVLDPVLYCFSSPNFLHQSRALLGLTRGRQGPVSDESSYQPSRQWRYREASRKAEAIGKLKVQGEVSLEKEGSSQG

## CCCCC/C=C\C/C=C\C/C=C\C=C\C(=O)CCCC(=O)O [5-oxoETE, 5-oxo-6E,8Z,11Z,14Z-eicosatetraenoic acid]
  IC50: ~2 nM
